{"source": "paper PMC10878086", "about": "“An RNA replicon system to investigate promising inhibitors of feline coronavirus” (Journal of Virology, 2024)", "key": {"[1]": {"system": "recFCoV-GFP (serotype I FIPV strain Black)", "assay": "Inhibitor test with recFCoV-GFP-infected Fcwf-4 cells, flow cytometry of GFP-positive cells", "format": "cell-based, feline infectious peritonitis virus", "conditions": "read-out: IC50 recFCoV-GFP flow cytometry", "description": "(§1) Finally, we assessed GC376 and Remdesivir individually or in combination in a virus infection system. We used the previously described recombinant recFCoV-GFP that is based on the laboratory-adapted serotype I FIPV strain Black and contains the GFP gene as a replacement for the accessory genes 3a–c ([39]). Using this virus, we could measure inhibition by assessing GFP expression or by virus titration. However, the assessment of GFP expression by measuring the median fluorescent intensity, as we did for BHK-F-rep cells, was not possible since recFCoV-GFP-infected Felis catus whole fetus 4 (Fcwf-4) cells died before the reduction of GFP expression was observable. Instead, we determined the number of GFP-positive cells to monitor inhibition (Fig. 5A through C). In parallel, we determined the virus titers released into the cell culture supernatant from inhibitor-treated and infected cells (Fig. 5A through C). […] The results are shown in Fig. 5C and can be compared with Fig. 4A (BHK-F-Rep inhibition) and IC50 values for the different experimental systems are shown in Table 2. […]\nTo assess the GFP expression in BHK and Fcwf-4 cells, the supernatant was removed, the cells were washed once with PBS and then detached with trypsin and transferred to a 96-well plate. […] Samples were acquired in Cytek Aurora with SpectroFlo Software Version 3.1.0 and analyzed using FlowJo software (FlowJo_v108.1). […]"}, "[2]": {"assay": "In vitro cytotoxicity assay (CytoTox-Glo) on BHK-F-Rep cells", "format": "cell-based, hamster", "conditions": "hamster", "method": "(§2) To define cytotoxic concentrations of the individual inhibitors, cytotoxicity assay with the CytoTox-Glo Cytotoxicity Assay (Promega) was performed according to the manufacturer’s instructions. As a positive control, 75 µg/well of cycloheximide was used. The inhibitors were diluted in DMSO to concentrations so that 2 µL/well could be added to reach the tested concentrations. For luminescence detection, a Hidex Sense with the HidexPlateReader Software 1.0.0 was used. Detection parameters were set for luminescence detection with an infrared cutoff of 1 second. As described by Promega, the difference of viable vs dead cells was calculated in Microsoft Excel 2016, and 50% of cytotoxic concentration (CC50) was determined in GraphPad Prism version 9.3.1 for Windows. The data were fitted to a nonlinear regression curve with log(inhibitor) vs normalized response with variable slope."}, "[3]": {"assay": "Cell viability testing in recFCoV-GFP infected Fcwf-4 cells", "format": "cell-based", "conditions": "cat (Felis catus)", "source_text": "Read-out as with the BHK-F-Rep cells done via flow cytometry and detection of GFP-positive cells (relative Inhibition) including IC50 values are shown in black with the left y-axis. As with the BHK-F-Rep cells, data shown on cell viability testing in the recFCoV-GFP infected Fcwf-4 cells are shown in black with the right y-axis including CC50 values. Additional data on viral titers of the recFCoV-GFP infected Fcwf-4 cells treated with the inhibitors and corresponding IC50 values are shown in red. The black and red lines in the graphs represent the mean value of the data collected from three independent experiments of individual drugs or their combination, respectively. The gray and red shaded areas represent the standard error of the mean.\nTo define cytotoxic concentrations of the individual inhibitors, cytotoxicity assay with the CytoTox-Glo Cytotoxicity Assay (Promega) was performed according to the manufacturer’s instructions. As a positive control, 75 µg/well of cycloheximide was used. […] For luminescence detection, a Hidex Sense with the HidexPlateReader Software 1.0.0 was used. Detection parameters were set for luminescence detection with an infrared cutoff of 1 second. As described by Promega, the difference of viable vs dead cells was calculated in Microsoft Excel 2016, and 50% of cytotoxic concentration (CC50) was determined in GraphPad Prism version 9.3.1 for Windows. […]"}, "[4]": {"system": "recFCoV-GFP (serotype I FIPV strain Black)", "assay": "Inhibitor test with recFCoV-GFP-infected Fcwf-4 cells, viral titers in supernatant (TCID50)", "format": "cell-based, feline infectious peritonitis virus", "conditions": "read-out: IC50 recFCoV-GFP viral titers", "description": "as §1\nAll conditions were tested in triplicates on three different days always including a negative control. […] The selectivity index (SI) was calculated in Microsoft Excel 2016 as follows: SI = CC50/IC50."}, "[5]": {"system": "serotype I FCoV replicon RNA in BHK-F-Rep cells", "assay": "microbe, parasite or virus in culture", "format": "cell-based, feline coronavirus (serotype I FECV field strain)", "conditions": "for IC50: BHK-F-Rep cells, median GFP intensity", "method": "The BHK-F-Rep cells would specifically allow the evaluation of inhibitors that target viral replication, which includes basic processes such as RNA synthesis and viral polyprotein processing. […] GFP expression was assessed by flow cytometry. […] In addition to GFP detection, immunofluorescence staining of the N-protein was performed as a control of the replication inhibition in an inhibitor experiment (Fig. 2D).\nFor each inhibitor test, the BHK-F-Rep was cultured in T75 or T150 flasks, washed once with PBS, cells detached with Gibco TrypLE Express (Trypsin; Thermo Fisher Scientific), and then seeded in 12-well plates (25,000 cells/well) in 1 mL/well of cell-culture medium (MEM +10% FBS +50 U/mL Pen/Strep). Directly after seeding, the inhibitor was added to the cells. The plates were incubated for 96 hours at 37°C with 5% CO2.\nTo assess the GFP expression in BHK and Fcwf-4 cells, the supernatant was removed, the cells were washed once with PBS and then detached with trypsin and transferred to a 96-well plate. The plate was centrifuged at 1,700 rpm for 5 minutes and the supernatant discarded. Cells were once washed again with PBS and again centrifuged at 1,700 rpm for 5 minutes and the supernatant was discarded. For the replicon conditions, the cells were then stained with the LIVE/DEAD Fixable Aqua Dead Cell Stain Kit for 405 nm excitation (Invitrogen) according to the manufacturer’s instructions. As the dead cell control, one of the samples was placed at 60°C for 20 minutes and then stained. After staining, the cells were washed with PBS and centrifuged (1,700 rpm for 5 minutes), and the supernatant was discarded. For the Fcwf-4 cells infected with the recFCoV-GFP, the staining and washing step was not performed. Then, all the cells were washed with PBS before being resuspended in 200 µL PBS and transferred to Falcon 5 mL round-bottom tubes with cell strainer cap (Corning Incorporated) and kept in the dark on ice. Samples were acquired in Cytek Aurora with SpectroFlo Software Version 3.1.0 and analyzed using FlowJo software (FlowJo_v108.1).\nInstead, to monitor inhibition, we determined the percent of GFP-positive cells. In either case, the median intensity of the GFP signal or the percentage of GFP-positive cells was normalized to the measurements of untreated conditions, by defining the untreated results of each triplicate as 100%. The value was then subtracted by 100 to get the value representing the percentage of inhibition.\nAll conditions were tested in triplicates on three different days always including a negative control. Statistical analysis and generation of graphs were performed using GraphPad Prism version 9.3.1 for Windows. The same as CC50, 50% inhibitory concentration (IC50) was determined in GraphPad Prism version 9.3.1 for Windows."}, "BHK-F-Rep cells": {"system": "BHK-F-Rep cells", "assay": "In vitro cytotoxicity assay (CytoTox-Glo) on BHK-F-Rep cells", "format": "cell-based, hamster", "method": "as §2"}, "[6]": {"conditions": "Alphacoronavirus 1, 96 h, 96 hours, flow cytometry"}}, "note": "Values joined by “and” are separate entries in the source; they are usually repeats but may differ in a detail not shown here. Equal entries are not always repeated. “Also recorded” adds a separate entry of the source. Structures can show the parent of a compound that is named as a salt. Where two headings read alike, the source gives them in different places."}
{"smiles": "CCC(CC)COC(=O)[C@H](C)N[P@](=O)(OC[C@H]1O[C@@](C#N)(c2ccc3c(N)ncnn23)[C@H](O)[C@@H]1O)Oc1ccccc1", "note": "[Remdesivir]", "values": [{"measurement": "IC50", "setting": "[1]; Alphacoronavirus 1, 48 h", "result": 1.15, "unit": "µM"}, {"measurement": "CC50", "setting": "[2]", "result": 99.1, "unit": "µM"}, {"measurement": "CC50 at 48 h", "setting": "[3]", "result": "> 200", "unit": "µM"}, {"measurement": "IC50", "setting": "[4]; Alphacoronavirus 1, 48 h", "result": 1.5, "unit": "µM"}]}
{"smiles": "CC(C)C[C@H](NC(=O)OCc1ccccc1)C(=O)N[C@@H](C[C@@H]1CCNC1=O)C(O)S(=O)(=O)[O-].[Na+]", "note": "(stereo partly drawn) [GC376]", "values": [{"measurement": "GFP expression of BHK-F-Rep cells after treatment (replicon-cured cell line)", "setting": "[5]; two consecutive treatments of 96 hours with 20 µM", "result": "undetectable"}]}
{"smiles": "CCN(CC)Cc1cc(Nc2ccnc3cc(Cl)ccc23)ccc1O", "note": "[Amodiaquine, Amodiaquine dihydrochloride]", "values": [{"measurement": "CC50", "setting": "[2]", "result": 47.2, "unit": "µM"}, {"measurement": "inhibitory effect on BHK-F-Rep cells", "setting": "[5]; 96 hours, flow cytometry, in words", "result": "did not observe an inhibitory effect; also recorded: did not show any inhibitory effect"}, {"measurement": "IC50", "setting": "[5]; [6]", "result": "> 40", "unit": "µM"}]}
{"smiles": "CC(C)C[C@H](NC(=O)OCc1ccccc1)C(=O)N[C@@H](CC1CCNC1=O)C(O)S(=O)(=O)O", "note": "(stereo partly drawn) [GC376]", "values": [{"measurement": "IC50", "setting": "[1]; Fcwf-4 cells, MOI 0.01, 48 hours, GFP-positive cells", "result": 0.84, "unit": "µM"}, {"measurement": "CC50", "setting": "BHK-F-Rep cells", "result": "> 200", "unit": "µM"}, {"measurement": "IC50", "setting": "[5]; 96 hours, flow cytometry, read-out: IC50", "result": "< 1 µM and 0.99 µM"}, {"measurement": "IC50", "setting": "[4]; Fcwf-4 cells, MOI 0.01, 48 hours, TCID50 of supernatant", "result": 1.01, "unit": "µM"}]}
{"smiles": "CC(C)(C)[C@H](NC(=O)C(F)(F)F)C(=O)N1C[C@H]2[C@@H]([C@H]1C(=O)N[C@H](C#N)C[C@@H]1CCNC1=O)C2(C)C", "note": "[Nirmatrelvir]", "values": [{"measurement": "CC50", "setting": "[2]", "result": "> 200", "unit": "µM"}, {"measurement": "IC50", "setting": "[5]; [6]", "result": "< 1", "unit": "µM"}, {"measurement": "IC50", "setting": "[5]; 96 hours, flow cytometry", "result": 0.78, "unit": "µM"}]}
